Source: patent US20250170140A1, “PHARMACEUTICAL COMPOSITION FOR PREVENTING OR TREATING CANCER COMPRISING CARNITINE ACYLCARNITINE CARRIER INHIBITOR AND PEROXISOMAL BETA OXIDATION INHIBITOR” (priority 2021, published 2025)

Key:
Type in all cases: cell-based
[1] = tested on: MCF-7 cells; assay: SRB assay, breast cancer cell line MCF-7
Experimental: To determine the effect of the combination treatment of omeprazole (KN510), a carnitine acylcarnitine carrier inhibitor, and thioridazine (KN714), a peroxisome beta-oxidation inhibitor, on cancer cell growth, the extent of cancer cell death was determined using the SRB assay (Sulforhodamine B colorimetric assay), and the degree of cancer cell growth was analyzed relative to the control (100%). As a comparison, omeprazole (KN510) and trimetazidine (KN713), a 3-ketoacyl CoA thiolase inhibitor, were co-treated.
First, a pancreatic cancer cell line, MIA PaCa-2, was prepared, and cells (100 μl) were inoculated into 96-well cell culture plates at plating densities ranging from 5,000 to 20,000 cells/well, depending on the doubling time of each cell line. After cell inoculation, 96-well cell culture plates were incubated for 24 hours before the addition of experimental drugs. MIA PaCa2 cells were treated with omeprazole (KN510) at concentrations of 10^−8 M, 10^−7 M, 10^−6 M, 10^−5 M, 10^−4 M, and 10^−3 M, thioridazine (KN714) at concentrations of 10^−10 M, 10^−9 M, 10^−8M, 10^−7 M, 10^−6 M, and 10^−5 M, and trimetazidine (KN713) at concentrations of 10^−7 M, 10^−6 M, 10^−5 M, 10^−4 M, 10^−3 M, and 10^−2 M, respectively.
(§1) The cells were then incubated in a CO2 incubator for 48 hours, after which the assay was terminated by the addition of cold TCA. Cells were fixed in situ by gently adding 50 μl of cold 50% (w/v) TCA (final concentration: 10% TCA) and incubated at 4° C. for 60 min. The supernatant was discarded, and the plate was washed five times with distilled water and air dried. Sulforhodamine B (SRB) solution (100 μl) of 0.4% (w/v) in 1% acetic acid was added to each well, and the plate was left at room temperature for 10 min. After staining, unbound dye was removed by washing five times with 1% acetic acid, and the plate was air-dried. The bound dye was then solubilized with 10 mM trizma base, and the absorbance was recorded at 515 nm using an automated plate reader.
Based on Table 1 above and GI50 values, omeprazole (KN510) and/or thioridazine (KN714) concentrations were added to each well such that the concentrations were as shown in the following groups, and then cancer cell death was measured in the same manner as in Examples 1-1 above. • 1) Control, • 2) Thioridazine (KN714) 5 μM alone treatment group, • 3) Thioridazine (KN714) 10 μM alone treatment group, • 4) Omeprazole (KN510) 200 μM alone treatment group, • 5) Omeprazole (KN510) 200 μM+thioridazine (KN714) 5 μM combination treatment group, • 6) Omeprazole (KN510) 200 μM+thioridazine (KN714) 10 μM combination treatment group.
When the anticancer activity of two compounds in combination is greater than the simple sum of the anticancer activity of the individual compounds (expected activity), this is called synergistic. The predicted synergistic activity of a combination of the present invention can be calculated using the Colby Equation in Equation 1 (S.R. Colby, Weeds, 1967, pp. 15, 20-22): […]
In the present invention, the actual measure of anti-cancer activity of the combination treatment was the inhibition rate of cancer cell growth (%), and the predicted value (E) of the combination treatment was measured by substituting it into the above Colby Equation. If the actual value is greater than the predicted value, it can be judged that there is a synergistic effect, and in this invention, the predicted value calculated by the Colby Equation and the actual value were compared to further verify the synergistic effect of the combination.
Experiments were performed using the breast cancer cell lines MCF-7 cells (1.2×10^4 cells/well) and MDA-MB-231 cells (8.0×10^3 cells/well) in the same manner as in Examples 1-2 and 1-3 above.

[2] = tested on: HCT-116 cells; assay: SRB assay, colon cancer cell line HCT-116
Experimental: as §1, with “As a comparison, omeprazole (KN510) and trimetazidine (KN713), a 3-ketoacyl CoA thiolase inhibitor, were co-treated. […] After cell inoculation, 96-well cell culture plates were incubated for 24 hours before the addition of experimental drugs. […] The cells” for “The cells”, “plate reader. […] The predicted synergistic activity of a combination of the present invention can be calculated using the Colby Equation in Equation 1 (S.R. Colby, Weeds, 1967, pp. 15, 20-22): In the present invention, the actual measure of anti-cancer activity of the combination treatment was the inhibition rate of cancer cell growth (%), and the predicted value (E) of the combination treatment was measured by substituting it into the above Colby Equation.” for “plate reader.”

[3] = tested on: K562 cells; assay: SRB assay, leukemia cell line K562
Experimental: as §1, with “As a comparison, omeprazole (KN510) and trimetazidine (KN713), a 3-ketoacyl CoA thiolase inhibitor, were co-treated. […] After cell inoculation, 96-well cell culture plates were incubated for 24 hours before the addition of experimental drugs. […] The cells” for “The cells”, “plate reader. […] The predicted synergistic activity of a combination of the present invention can be calculated using the Colby Equation in Equation 1 (S.R. Colby, Weeds, 1967, pp. 15, 20-22): In the present invention, the actual measure of anti-cancer activity of the combination treatment was the inhibition rate of cancer cell growth (%), and the predicted value (E) of the combination treatment was measured by substituting it into the above Colby Equation.” for “plate reader.”

[4] = tested on: SR cells; assay: SRB assay, leukemia cell line SR
Experimental: as §1, with “As a comparison, omeprazole (KN510) and trimetazidine (KN713), a 3-ketoacyl CoA thiolase inhibitor, were co-treated. […] After cell inoculation, 96-well cell culture plates were incubated for 24 hours before the addition of experimental drugs. […] The cells” for “The cells”, “plate reader. […] The predicted synergistic activity of a combination of the present invention can be calculated using the Colby Equation in Equation 1 (S.R. Colby, Weeds, 1967, pp. 15, 20-22): In the present invention, the actual measure of anti-cancer activity of the combination treatment was the inhibition rate of cancer cell growth (%), and the predicted value (E) of the combination treatment was measured by substituting it into the above Colby Equation.” for “plate reader.”

[5] = tested on: UACC-62 cells; assay: SRB assay, melanoma cell line UACC-62
Experimental: as §1, with “As a comparison, omeprazole (KN510) and trimetazidine (KN713), a 3-ketoacyl CoA thiolase inhibitor, were co-treated. […] After cell inoculation, 96-well cell culture plates were incubated for 24 hours before the addition of experimental drugs. […] The cells” for “The cells”, “plate reader. […] The predicted synergistic activity of a combination of the present invention can be calculated using the Colby Equation in Equation 1 (S.R. Colby, Weeds, 1967, pp. 15, 20-22): In the present invention, the actual measure of anti-cancer activity of the combination treatment was the inhibition rate of cancer cell growth (%), and the predicted value (E) of the combination treatment was measured by substituting it into the above Colby Equation.” for “plate reader.”

[6] = tested on: H1975 cells; assay: SRB assay, lung cancer cells H1975
Experimental: as §1, with “As a comparison, omeprazole (KN510) and trimetazidine (KN713), a 3-ketoacyl CoA thiolase inhibitor, were co-treated. […] After cell inoculation, 96-well cell culture plates were incubated for 24 hours before the addition of experimental drugs. […] The cells” for “The cells”, “plate reader. […] The predicted synergistic activity of a combination of the present invention can be calculated using the Colby Equation in Equation 1 (S.R. Colby, Weeds, 1967, pp. 15, 20-22): In the present invention, the actual measure of anti-cancer activity of the combination treatment was the inhibition rate of cancer cell growth (%), and the predicted value (E) of the combination treatment was measured by substituting it into the above Colby Equation.” for “plate reader.”

[7] = tested on: ACHN cells; assay: SRB assay, renal cell carcinoma cell line ACHN
Experimental: as §1, with “As a comparison, omeprazole (KN510) and trimetazidine (KN713), a 3-ketoacyl CoA thiolase inhibitor, were co-treated. […] After cell inoculation, 96-well cell culture plates were incubated for 24 hours before the addition of experimental drugs. […] The cells” for “The cells”, “plate reader. […] The predicted synergistic activity of a combination of the present invention can be calculated using the Colby Equation in Equation 1 (S.R. Colby, Weeds, 1967, pp. 15, 20-22): In the present invention, the actual measure of anti-cancer activity of the combination treatment was the inhibition rate of cancer cell growth (%), and the predicted value (E) of the combination treatment was measured by substituting it into the above Colby Equation.” for “plate reader.”

[8] = tested on: AGS cells; assay: SRB assay, stomach cancer cell line AGS
Experimental: as §1, with “As a comparison, omeprazole (KN510) and trimetazidine (KN713), a 3-ketoacyl CoA thiolase inhibitor, were co-treated. […] After cell inoculation, 96-well cell culture plates were incubated for 24 hours before the addition of experimental drugs. […] The cells” for “The cells”, “plate reader. […] The predicted synergistic activity of a combination of the present invention can be calculated using the Colby Equation in Equation 1 (S.R. Colby, Weeds, 1967, pp. 15, 20-22): In the present invention, the actual measure of anti-cancer activity of the combination treatment was the inhibition rate of cancer cell growth (%), and the predicted value (E) of the combination treatment was measured by substituting it into the above Colby Equation.” for “plate reader.”

[9] = Homo sapiens, KN714 5 μM, read-out: Inhibition rate of cancer cell growth (%) (Actual value)
[10] = Homo sapiens, KN714 10 μM, read-out: Inhibition rate of cancer cell growth (%) (Actual value)

## CSc1ccc2c(c1)N(CCC1CCCCN1C)c1ccccc1S2 (centres unmarked) [KN714, 10-[2-(1-methyl-2-piperidyl)ethyl]-2-(methylthio)phenothiazine]
[1]; Homo sapiens, MCF7, KN714 5 μM, read-out: Inhibition rate of cancer cell growth (%) (Actual value)
  inhibition at 5 µM: 1.49%
[1]; Homo sapiens, MCF7, KN714 10 μM, read-out: Inhibition rate of cancer cell growth (%) (Actual value)
  inhibition at 10 µM: 60.3%
[1]; KN714 5 μM
  Cancer cell growth rate Average (%): 98.51%
[1]; KN714 10 μM
  Cancer cell growth rate Average (%): 39.69%
[2]; [9]
  inhibition at 5 µM: 7.99%
[2]; [10]
  inhibition at 10 µM: 32.2%
[2]; KN714 5 μM
  Cancer cell growth rate Average (%): 92.01%
[2]; KN714 10 μM
  Cancer cell growth rate Average (%): 67.80%
[3]; [9]
  inhibition at 5 µM: 57.8%
[3]; [10]
  inhibition at 10 µM: 102%
[3]; KN714 5 μM
  Cancer cell growth rate Average (%): 42.25%
[3]; KN714 10 μM
  Cancer cell growth rate Average (%): −1.56%
[4]; [9]
  inhibition at 5 µM: 37.2%
[4]; [10]
  inhibition at 10 µM: 111%
[4]; KN714 5 μM
  Cancer cell growth rate Average (%): 62.75%
[4]; KN714 10 μM
  Cancer cell growth rate Average (%): −11.34%
[5]; [9]
  inhibition at 5 µM: 10.6%
[5]; [10]
  inhibition at 10 µM: 60.5%
[5]; KN714 5 μM
  Cancer cell growth rate Average (%): 89.43%
[5]; KN714 10 μM
  Cancer cell growth rate Average (%): 39.54%
[6]; Homo sapiens, NCI-H1975, KN714 5 μM, read-out: Inhibition rate of cancer cell growth (%) (Actual value)
  inhibition at 5 µM: -13.9%
[6]; Homo sapiens, NCI-H1975, KN714 10 μM, read-out: Inhibition rate of cancer cell growth (%) (Actual value)
  inhibition at 10 µM: 8.1%
[6]; KN714 5 μM
  Cancer cell growth rate Average (%): 113.89%
[6]; KN714 10 μM
  Cancer cell growth rate Average (%): 91.90%
[7]; [9]
  inhibition at 5 µM: -2.76%
[7]; [10]
  inhibition at 10 µM: 29.6%
[7]; KN714 5 μM
  Cancer cell growth rate Average (%): 102.76%
[7]; KN714 10 μM
  Cancer cell growth rate Average (%): 70.39%
[8]; [9]
  inhibition at 5 µM: 32.9%
[8]; [10]
  inhibition at 10 µM: 84.5%
[8]; KN714 5 μM
  Cancer cell growth rate Average (%): 67.13%
[8]; KN714 10 μM
  Cancer cell growth rate Average (%): 15.46%
